In US20250302813A1, “RECOMBINANT METHIONINASE IN THE TREATMENT OF CANCER” (ANTICANCER INC, priority 2024, published 2025):
Where two headings read alike, the source gives them in different places.

Columns and labels:
[1] = system: HCT-116 human colon cancer cell line; assay: Cell viability testing of HCT-116 cells (Cell Counting Kit-8, WST-8 reagent); assay type: cell-based; conditions: for IC50: Homo sapiens
Method: Cell culture: The HCT-116 human colon cancer cell line was acquired from the American Type Culture Collection (Manassas, VA, USA). The cells were grown in Dulbecco's […] medium (DMEM) with 10% fetal bovine serum and 100 IU/ml of penicillin/streptomycin.
Cell viability testing: HCT-116 cells were cultivated at subconfluence overnight in Dulbecco's modified Eagle's medium in 96-well plates (1.0×10^3 cells per well). The following day, HCT-116 cells were treated with concentrations of rMETase ranging from 0.125 to 8 U/ml or regorafenib ranging from 0.25 μM to 16 μM. Regorafenib was purchased from MedChemExpress (Monmouth Junction, NJ, USA). After 72 h of treatment, cell viability was assessed using the Cell Counting Kit-8 (Dojindo Laboratory, Kumamoto, Japan) with the WST-8 reagent.
ImageJ version 1.53 (National Institutes of Health, Bethesda, MD, USA) was applied to calculate IC50 values and sensitivity curves. After calculating the half-maximal inhibitory concentration (IC50) for rMETase and regorafenib, the […]. concentrations of both drugs were used to determine the synergistic efficacy of the combination of the drugs. Finally, the IC50 study was repeated for regorafenib on HCT-116 cells treated in combination with the IC50 concentration of rMETase to examine whether methionine restriction increased the efficacy of regorafenib. Each experiment was carried out in triplicate.
Statistics: GraphPad Prism 9.4.0 (GraphPad Software, Inc., San Diego, CA, USA) was used to conduct all statistical analyses. Tukey's multiple comparison test was performed for the parametric test of comparison between groups. All data are presented as the mean and standard deviation. The significance level was p≤0.05.

[2] = system: human colorectal cancer cell line; conditions: in vitro; cited from earlier work
[3] = patients; oral regorafenib; cited from earlier work

Row | IC50 ([1]; HCT-116, 72 h, addition of rMETase at 0.61 U/ml (its IC50), 72 h, WST-8, read-out: IC50 of regorafenib in combination with rMETase) [µM] | IC50 ([1]; HCT-116, 72 h, regorafenib alone, 72 h treatment, WST-8, read-out: IC50 of regorafenib on HCT-116 cells) [µM] | IC50 ([1]; HCT-116, regorafenib alone, read-out: IC50 of regorafenib alone on HCT-116 cells (printed in U/ml)) [µM] | IC50 of rMETase on HCT-116 cells ([1]; rMETase alone, 72 h treatment, WST-8) [U/ml] | Compound | Increase of intracellular S-adenosyl-L-methionine (SAM) level compared to the control [2] [%] | Time to appearance of toxicity after the start of treatment (severe skin rash, diarrhea, hypertension, fatigue) [3] [days]
1 | 1.46 | 2.2 | 2.26 |  | CNC(=O)c1cc(Oc2ccc(NC(=O)Nc3ccc(Cl)c(C(F)(F)F)c3)c(F)c2)ccn1 [regorafenib, 4-[4-[[4-chloro-3-(trifluoromethyl)phenyl]carbamoylamino]-3-fluorophenoxy]-N-methylpyridine-2-carboxamide] | 34.5 | 3 to 4
2 |  |  |  | 0.61 | rMETase: recombinant methioninase produced by fermentation of recombinant Escherichia coli transformed with the methioninase gene from Pseudomonas putida |  | 
